From ChEMBL document CHEMBL2440005, “Discovery and structure-activity relationships of 6-(benzoylamino)benzoxaboroles as orally active anti-inflammatory agents” (Bioorg Med Chem Lett, 2013)
Calls of active or inactive are those of the source. The rule behind the calls is not given here.

Assays:
[1] = target: Dual specificity mitogen-activated protein kinase kinase 2 (Homo sapiens) (UniProt P36507); test: Inhibition of MEK2 (unknown origin) at 30 uM
[2] = Tmax in mouse at 4 mg/kg, po; type: ADME, organism-based; set-up: dose 4 mg/kg, route oral; settings: in vivo
[3] = Volume of distribution at steady state in mouse at 2 mg/kg, iv; type: ADME, organism-based; set-up: dose 2 mg/kg, route intravenous; settings: in vivo, read-out: Vdss
[4] = Clearance in mouse at 2 mg/kg, iv; type: ADME, organism-based; set-up: dose 2 mg/kg, route intravenous; settings: in vivo
[5] = target: Mitogen-activated protein kinase 9 (Homo sapiens) (UniProt P45984); test: Inhibition of JNK2 (unknown origin) at 30 uM
[6] = Terminal half life in mouse at 2 mg/kg, iv; type: ADME, organism-based; set-up: dose 2 mg/kg, route intravenous; settings: in vivo, read-out: beta t1/2 (converted)
[7] = tested on: Mus musculus; test: Antiinflammatory activity in po dosed mouse assessed as inhibition of LPS-induced IL-6 production administered 1 hr prior to LPS challenge measured after 1 hr; type: functional, organism-based
[8] = target: Rho-associated protein kinase 1 (Homo sapiens) (UniProt Q13464); test: Inhibition of ROCK1 (unknown origin) at 30 uM
[9] = target: RAC-beta serine/threonine-protein kinase (Homo sapiens) (UniProt P31751); test: Inhibition of AKT2 (unknown origin) at 30 uM
[10] = target: Tyrosine-protein kinase JAK3 (Homo sapiens) (UniProt P52333); test: Inhibition of JAK3 (unknown origin) at 30 uM
[11] = tested on: PBMC; test: Antiinflammatory activity in human PBMC assessed as inhibition of LPS-induced IL-6 release incubated for 15 mins prior to LPS-challenge measured after 24 hrs by HTRF assay; type: functional, cell-based
[12] = target: Mitogen-activated protein kinase 8 (Homo sapiens) (UniProt P45983); test: Inhibition of JNK1 (unknown origin) at 30 uM
[13] = target: Inhibitor of nuclear factor kappa-B kinase subunit epsilon (Homo sapiens) (UniProt Q14164); test: Inhibition of IKKepsilon (unknown origin) at 30 uM
[14] = target: Interleukin-1 receptor-associated kinase 1 (Homo sapiens) (UniProt P51617); test: Inhibition of IRAK1 (unknown origin) at 30 uM
[15] = tested on: PBMC; test: Antiinflammatory activity in human PBMC assessed as inhibition of LPS-induced TNFalpha release incubated for 15 mins prior to LPS-challenge measured after 24 hrs by HTRF assay; type: functional, cell-based
[16] = Oral bioavailability in mouse at 4 mg/kg; type: ADME, organism-based; settings: in vivo
[17] = target: Phosphatidylinositol 4,5-bisphosphate 3-kinase catalytic subunit alpha isoform (Homo sapiens) (UniProt P42336); test: Inhibition of PI3Kalpha (unknown origin) at 30 uM
[18] = target: Inhibitor of nuclear factor kappa-B kinase subunit alpha (Homo sapiens) (UniProt O15111); test: Inhibition of IKKalpha (unknown origin) at 30 uM
[19] = tested on: Mus musculus; test: Antiinflammatory activity in mouse assessed as inhibition of LPS-induced IL-6 production at 10 mg/kg, po administered 1 hr prior to LPS challenge measured after 1 hr; type: functional
[20] = tested on: PBMC; test: Cytotoxicity against LPS-stimulated human PBMC assessed as growth inhibition by MTT assay; type: cell-based
[21] = target: Dual specificity mitogen-activated protein kinase kinase 1 (Homo sapiens) (UniProt Q02750); test: Inhibition of MEK1 (unknown origin) at 30 uM
Sequence of Dual specificity mitogen-activated protein kinase kinase 1 (Homo sapiens) (Q02750 whole entry): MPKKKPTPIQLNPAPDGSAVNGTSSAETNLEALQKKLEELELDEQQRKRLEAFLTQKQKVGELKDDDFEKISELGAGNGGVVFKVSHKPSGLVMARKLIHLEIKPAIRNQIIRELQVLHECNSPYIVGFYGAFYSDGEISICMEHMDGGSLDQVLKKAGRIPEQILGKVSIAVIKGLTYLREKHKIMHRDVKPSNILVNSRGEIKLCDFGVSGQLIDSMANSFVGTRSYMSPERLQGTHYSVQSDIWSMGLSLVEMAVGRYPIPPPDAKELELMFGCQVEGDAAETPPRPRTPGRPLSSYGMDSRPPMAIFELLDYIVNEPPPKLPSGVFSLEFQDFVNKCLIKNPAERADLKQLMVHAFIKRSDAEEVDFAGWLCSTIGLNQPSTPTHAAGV

Sequence of Rho-associated protein kinase 1 (Homo sapiens) (Q13464 2-1354 limits assumed): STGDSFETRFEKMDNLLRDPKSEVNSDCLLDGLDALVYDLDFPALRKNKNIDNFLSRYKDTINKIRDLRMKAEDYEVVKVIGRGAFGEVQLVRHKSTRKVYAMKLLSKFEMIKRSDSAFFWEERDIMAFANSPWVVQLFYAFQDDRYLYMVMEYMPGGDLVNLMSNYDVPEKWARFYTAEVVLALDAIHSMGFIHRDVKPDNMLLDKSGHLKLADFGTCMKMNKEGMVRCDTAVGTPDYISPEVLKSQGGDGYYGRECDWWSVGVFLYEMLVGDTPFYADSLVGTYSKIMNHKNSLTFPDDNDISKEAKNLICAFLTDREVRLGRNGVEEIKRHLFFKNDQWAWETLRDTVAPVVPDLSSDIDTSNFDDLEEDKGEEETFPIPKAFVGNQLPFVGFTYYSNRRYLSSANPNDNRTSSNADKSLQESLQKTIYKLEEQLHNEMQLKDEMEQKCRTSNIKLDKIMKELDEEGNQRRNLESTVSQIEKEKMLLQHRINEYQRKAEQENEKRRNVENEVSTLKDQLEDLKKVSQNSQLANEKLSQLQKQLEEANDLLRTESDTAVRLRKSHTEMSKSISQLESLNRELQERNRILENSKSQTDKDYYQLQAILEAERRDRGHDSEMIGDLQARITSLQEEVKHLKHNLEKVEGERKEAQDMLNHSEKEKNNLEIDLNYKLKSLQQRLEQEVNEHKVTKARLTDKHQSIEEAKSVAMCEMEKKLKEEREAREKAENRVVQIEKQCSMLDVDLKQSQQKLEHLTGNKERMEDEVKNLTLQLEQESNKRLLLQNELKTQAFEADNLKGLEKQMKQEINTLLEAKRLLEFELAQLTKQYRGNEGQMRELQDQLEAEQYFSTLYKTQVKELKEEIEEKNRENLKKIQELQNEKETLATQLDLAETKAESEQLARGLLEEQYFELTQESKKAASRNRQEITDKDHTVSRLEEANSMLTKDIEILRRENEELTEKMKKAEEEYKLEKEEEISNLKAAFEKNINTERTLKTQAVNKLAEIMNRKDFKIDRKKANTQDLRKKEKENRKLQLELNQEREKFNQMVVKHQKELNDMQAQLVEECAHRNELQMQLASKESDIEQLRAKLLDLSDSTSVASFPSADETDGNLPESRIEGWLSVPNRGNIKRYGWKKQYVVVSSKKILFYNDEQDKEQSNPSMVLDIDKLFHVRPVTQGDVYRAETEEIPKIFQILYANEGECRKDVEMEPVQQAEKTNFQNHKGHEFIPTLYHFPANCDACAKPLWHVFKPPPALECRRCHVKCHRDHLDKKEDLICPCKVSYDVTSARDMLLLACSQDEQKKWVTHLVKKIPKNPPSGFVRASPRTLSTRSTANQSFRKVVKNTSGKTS
Sequence of Phosphatidylinositol 4,5-bisphosphate 3-kinase catalytic subunit alpha isoform (Homo sapiens) (P42336 whole entry, canonical isoform): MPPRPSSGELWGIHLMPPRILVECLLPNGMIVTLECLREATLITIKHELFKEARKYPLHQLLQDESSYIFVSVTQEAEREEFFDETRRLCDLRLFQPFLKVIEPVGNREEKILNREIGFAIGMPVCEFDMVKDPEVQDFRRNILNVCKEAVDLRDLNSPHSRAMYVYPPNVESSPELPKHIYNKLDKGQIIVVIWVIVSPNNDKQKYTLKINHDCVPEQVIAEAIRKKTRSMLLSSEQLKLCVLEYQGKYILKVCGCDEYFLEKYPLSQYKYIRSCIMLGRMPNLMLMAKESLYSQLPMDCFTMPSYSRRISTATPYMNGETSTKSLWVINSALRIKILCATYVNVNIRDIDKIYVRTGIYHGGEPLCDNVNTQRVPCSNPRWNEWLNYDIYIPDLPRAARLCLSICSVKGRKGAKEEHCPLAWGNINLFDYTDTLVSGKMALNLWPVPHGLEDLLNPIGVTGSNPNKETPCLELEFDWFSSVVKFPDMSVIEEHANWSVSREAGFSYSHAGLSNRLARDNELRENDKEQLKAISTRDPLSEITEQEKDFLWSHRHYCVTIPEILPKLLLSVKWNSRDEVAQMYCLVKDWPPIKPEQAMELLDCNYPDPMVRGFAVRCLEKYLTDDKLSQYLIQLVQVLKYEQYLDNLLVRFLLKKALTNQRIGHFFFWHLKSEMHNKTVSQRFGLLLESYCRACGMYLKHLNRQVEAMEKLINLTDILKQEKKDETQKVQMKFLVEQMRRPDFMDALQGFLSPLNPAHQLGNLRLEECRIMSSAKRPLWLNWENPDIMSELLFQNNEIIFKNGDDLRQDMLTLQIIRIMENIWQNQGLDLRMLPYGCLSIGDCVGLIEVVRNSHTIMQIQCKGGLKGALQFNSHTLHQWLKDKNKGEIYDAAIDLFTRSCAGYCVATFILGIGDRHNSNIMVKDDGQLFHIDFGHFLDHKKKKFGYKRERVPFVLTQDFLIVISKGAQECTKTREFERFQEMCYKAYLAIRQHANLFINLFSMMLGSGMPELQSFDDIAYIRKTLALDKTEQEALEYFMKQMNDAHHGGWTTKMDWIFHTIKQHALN
Sequence of Tyrosine-protein kinase JAK3 (Homo sapiens) (P52333 whole entry): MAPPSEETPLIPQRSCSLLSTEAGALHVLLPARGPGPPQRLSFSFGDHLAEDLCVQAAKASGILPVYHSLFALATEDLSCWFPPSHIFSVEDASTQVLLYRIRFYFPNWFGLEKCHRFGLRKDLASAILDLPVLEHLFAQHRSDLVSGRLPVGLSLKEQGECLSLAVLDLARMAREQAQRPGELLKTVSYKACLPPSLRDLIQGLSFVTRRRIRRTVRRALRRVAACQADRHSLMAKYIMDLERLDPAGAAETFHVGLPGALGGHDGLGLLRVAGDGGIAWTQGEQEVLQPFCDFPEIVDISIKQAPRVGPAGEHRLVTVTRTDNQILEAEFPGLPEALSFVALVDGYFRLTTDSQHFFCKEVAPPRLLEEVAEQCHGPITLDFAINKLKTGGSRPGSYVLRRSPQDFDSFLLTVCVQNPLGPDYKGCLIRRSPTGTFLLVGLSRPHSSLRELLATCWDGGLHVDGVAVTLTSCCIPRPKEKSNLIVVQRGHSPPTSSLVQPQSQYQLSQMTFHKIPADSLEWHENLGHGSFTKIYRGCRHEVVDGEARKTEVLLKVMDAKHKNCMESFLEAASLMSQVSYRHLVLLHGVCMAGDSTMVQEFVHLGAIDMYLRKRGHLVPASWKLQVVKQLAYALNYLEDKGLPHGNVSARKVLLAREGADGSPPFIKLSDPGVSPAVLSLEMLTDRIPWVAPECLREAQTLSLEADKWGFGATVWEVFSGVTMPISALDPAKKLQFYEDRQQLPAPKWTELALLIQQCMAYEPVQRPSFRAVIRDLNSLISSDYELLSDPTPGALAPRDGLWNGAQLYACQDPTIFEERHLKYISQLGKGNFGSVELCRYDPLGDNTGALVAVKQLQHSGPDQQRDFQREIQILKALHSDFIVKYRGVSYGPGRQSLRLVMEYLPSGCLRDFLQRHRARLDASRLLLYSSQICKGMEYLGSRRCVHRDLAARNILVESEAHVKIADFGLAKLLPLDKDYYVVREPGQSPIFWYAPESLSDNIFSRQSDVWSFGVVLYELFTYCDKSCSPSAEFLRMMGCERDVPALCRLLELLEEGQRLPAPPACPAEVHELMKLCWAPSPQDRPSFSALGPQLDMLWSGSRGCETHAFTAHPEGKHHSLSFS
Sequence of Interleukin-1 receptor-associated kinase 1 (Homo sapiens) (P51617 whole entry, looked up): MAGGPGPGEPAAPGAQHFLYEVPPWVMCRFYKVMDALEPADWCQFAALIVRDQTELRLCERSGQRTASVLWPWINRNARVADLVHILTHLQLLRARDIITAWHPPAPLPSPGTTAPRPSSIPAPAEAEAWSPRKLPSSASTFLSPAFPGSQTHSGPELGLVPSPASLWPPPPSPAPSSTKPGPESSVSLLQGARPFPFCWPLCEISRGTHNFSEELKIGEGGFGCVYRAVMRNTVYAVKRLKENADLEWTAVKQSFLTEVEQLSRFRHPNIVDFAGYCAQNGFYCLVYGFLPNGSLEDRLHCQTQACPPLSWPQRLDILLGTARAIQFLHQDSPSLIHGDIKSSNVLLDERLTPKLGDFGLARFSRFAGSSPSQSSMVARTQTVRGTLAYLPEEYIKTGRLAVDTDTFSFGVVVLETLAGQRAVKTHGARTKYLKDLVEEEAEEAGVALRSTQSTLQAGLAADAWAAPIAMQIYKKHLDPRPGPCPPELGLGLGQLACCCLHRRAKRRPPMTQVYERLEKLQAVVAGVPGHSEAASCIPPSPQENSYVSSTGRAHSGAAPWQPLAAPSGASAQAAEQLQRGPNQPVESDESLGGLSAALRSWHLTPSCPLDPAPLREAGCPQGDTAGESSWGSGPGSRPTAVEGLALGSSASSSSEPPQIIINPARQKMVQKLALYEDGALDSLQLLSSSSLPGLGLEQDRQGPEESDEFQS
Sequence of Dual specificity mitogen-activated protein kinase kinase 2 (Homo sapiens) (P36507 whole entry): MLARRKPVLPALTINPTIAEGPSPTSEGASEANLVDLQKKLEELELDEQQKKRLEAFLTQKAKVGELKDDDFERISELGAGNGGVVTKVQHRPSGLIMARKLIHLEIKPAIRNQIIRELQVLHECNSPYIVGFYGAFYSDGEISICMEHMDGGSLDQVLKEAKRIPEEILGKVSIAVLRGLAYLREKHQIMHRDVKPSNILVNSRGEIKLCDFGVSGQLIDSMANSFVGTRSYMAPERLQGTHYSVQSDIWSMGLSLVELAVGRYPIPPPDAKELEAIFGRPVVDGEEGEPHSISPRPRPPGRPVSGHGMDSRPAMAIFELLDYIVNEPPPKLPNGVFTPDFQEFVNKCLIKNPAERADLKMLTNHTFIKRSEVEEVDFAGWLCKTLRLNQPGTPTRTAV

SMILES: O=C(Nc1ccc2c(c1)B(O)OC2)c1c(C(F)(F)F)ccc(Cl)c1F
- inhibition [1]: inactive
- Tmax [2]: 4 h
- Vd [3]: 0.41 L/kg
- clearance [4]: 0.683 mL/min/kg
- inhibition [5]: inactive
- half-life [6]: 7.85 h
- inhibition [7]: Dose-dependent effect
- inhibition [8]: inactive
- inhibition [9]: inactive
- inhibition [10]: inactive
- IC50 [11]: 320 nM
- inhibition [12]: inactive
- inhibition [13]: inactive
- inhibition [14]: inactive
- IC50 [15]: 500 nM
- bioavailability [16]: 71%
- inhibition [17]: inactive
- inhibition [18]: inactive
- inhibition in vivo at 10 mg/kg [19]: 75%
- IC50 [20]: > 100000 nM
- inhibition [21]: inactive
